{"source": "patent US7294641B2", "about": "“Heterocyclic compound for stimulating or inducing the growth of the hair or eyelashes and/or slowing down their loss, composition comprising it and its uses” (L'Oreal, priority 2002, dated 2007)", "key": {"[1]": {"biological_target": "T1, 15PGDH (Homo sapiens, UniProt P15428)", "T1 sequence (P15428 1-266)": "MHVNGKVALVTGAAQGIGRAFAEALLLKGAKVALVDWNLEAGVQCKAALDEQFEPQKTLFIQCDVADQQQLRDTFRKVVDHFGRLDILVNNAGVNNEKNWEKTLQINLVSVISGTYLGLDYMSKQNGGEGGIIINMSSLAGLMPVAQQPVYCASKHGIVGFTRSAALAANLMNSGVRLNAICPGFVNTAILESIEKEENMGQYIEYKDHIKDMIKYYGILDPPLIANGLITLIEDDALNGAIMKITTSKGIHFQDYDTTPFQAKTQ", "assay": "Test on 15-PGDH (spectrophotometric, 340 nm, PGE2/β-NAD)", "assay_type": "biochemical", "parameters": "made in house", "method": "The enzyme 15-PGDH is obtained as disclosed in Application FR-A-02/05067, filed on behalf of L'Oréal, in suspension in a suitable medium at a concentration of 0.3 mg/ml, then blocked at −80° C. For the requirements of the test, this suspension is defrosted and stored in ice.\nFurthermore, a Tris 100 mM, pH=7.4, buffer comprising 0.1 mM of dithiothreitol (D5545, Sigma-Aldrich, L'isle D'Abeau Chesne, BP 701, 38297, Saint Quentin Fallavier), 1.5 mM of β-NAD (N6522, Sigma-Aldrich, L'isle D'Abeau Chesne, BP 701, 38297, Saint Quentin Fallavier) and 50 μM of prostaglandin E2 (P4172, Sigma-Aldrich, L'isle D'Abeau Chesne, BP 701, 38297, Saint Quentin Fallavier) is prepared.\n(§1) 0.965 ml of this buffer (brought beforehand to 37° C.) is introduced into the cell of a spectrophotometer (Perkin-Elmer, Lambda 2) thermostatically controlled at 37° C., the wavelength of which for the measurement is adjusted to 340 nm. 0.035 ml of enzymatic suspension at 37° C. is introduced into the cell concomitantly with the recording (corresponding to an increase in optical density at 340 nm). The maximum rate of reaction is noted.\nThe test values (comprising the compounds (I)) are compared with the control value (without compound (I)); the results indicated represent the concentration at which the compound (I) inhibits 50% of the enzymatic activity of 15-PGDH, referred to as IC50dh."}, "[2]": {"biological_target": "T1, 15PGDH", "assay": "Specific inhibitory effectiveness for 15PGDH on a cell model (PGF2 secreted by PMA/LPS-treated U937)", "assay_type": "cell-based", "parameters": "endogenous in cells; host or cells: U937 (ATCC CRL-1593), PMA-differentiated, LPS-stimulated", "conditions": "5 μM test molecule, 10 ng LPS, 6 h at 37° C., immuno-enzymatic assay", "method": "The present study is targeted at evaluating the compounds of formula (I) in a cell model. This study makes it possible to determine the penetration of the active principle into the cytosol and its effectiveness as specific inhibitor of 15-PGDH under more complex experimental conditions than a simple reaction medium.\nD-2. Culturing of U937 (CRL-1593 American Type Cells Collection) in RPMI medium 1640+10% of foetal calf serum+2 mM of L-glutamine+antibiotics at 37° C. under 5% of CO2.\nD-1. Preparation of a suspension of U937 (1×10^6 cells/ml) in RPMI medium 1640+10% of foetal calf serum+2 mM of glutamine+antibiotics+10 nM of PMA (phorbol 12-myristate 13-acetate); introduction of 200 μl per test well of this suspension into a 96-well plate (3 wells per molecule and per concentration to be tested+corresponding controls); incubation at 37° C. for 36 h 00 under 5% CO2.\nD0. Removal of the supernatants (the cells have adhered to the bottom of the wells: monitoring using a microscope) and introduction into each well of 100 μl of RPMI 1640+2 mM of L-glutamine+10 ng of LipoPolySaccharide (LPS) (except absolute control)+the test molecule at the desired concentration (in this instance, 5 and 25 μM).\nIncubation at 37° C. for 6 h 00 under 5% of CO2.\nThe mother solutions of test molecules are at 25 mM in DiMethyl SulfOxide.\nAll the wells comprise the same final amount of DMSO. […]"}, "[3]": {"biological_target": "T2, PGF synthase (Homo sapiens, UniProt P42330)", "T2 construct": "made in house", "T2 sequence (P42330 1-323)": "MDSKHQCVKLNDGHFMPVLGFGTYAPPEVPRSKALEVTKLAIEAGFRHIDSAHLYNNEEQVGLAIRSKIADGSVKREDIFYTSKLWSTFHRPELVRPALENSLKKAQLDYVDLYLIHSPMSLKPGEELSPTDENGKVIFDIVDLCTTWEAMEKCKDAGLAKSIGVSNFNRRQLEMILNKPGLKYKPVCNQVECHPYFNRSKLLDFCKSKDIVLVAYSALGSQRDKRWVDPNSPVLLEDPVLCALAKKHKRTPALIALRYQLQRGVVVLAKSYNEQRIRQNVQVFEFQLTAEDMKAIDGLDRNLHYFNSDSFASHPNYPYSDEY", "assay": "Test on PGFS (spectrophotometric, 340 nm, 9,10-phenanthrenequinone/β-NADPH)", "assay_type": "biochemical", "conditions": "Tris 100 mM pH 6.5, 37° C., 20 μM 9,10-phenanthrenequinone, 100 μM β-NADPH; read-out: Inhibition of PGFS IC50fs", "method": "The enzyme PGF synthase is obtained as disclosed in the document FR-A-02/05067, at a concentration of 0.5 mg/ml, in suspension in an appropriate medium, and is blocked at −80° C. For the requirements of the test, this suspension is defrosted and stored in ice.\nFurthermore, a Tris 100 mM, pH=6.5, buffer comprising 20 μM of 9,10-phenanthrenequinone* (P2896, Sigma-Aldrich, L'isle D'Abeau Chesne, BP 701, 38297, Saint Quentin Fallavier) and 100 μM of β-NADPH(N1630, Sigma-Aldrich, L'isle D'Abeau Chesne, BP 701, 38297, Saint Quentin Fallavier) is prepared in a brown bottle (exclusion of light).\n* A mother solution assaying 1 mM is prepared in absolute ethanol and is brought to 40° C.; the bottle is placed in an ultrasonic bath to facilitate the dissolution of the product.\nas §1, with “0.950” for “0.965”, “0.05” for “0.035”, “a fall” for “an increase”, “noted. […]” for “noted.”"}}, "note": "Counter-ions that a name gives are not always drawn."}
{"smiles": "O=C1NC(=O)C(=Cc2ccc(-c3ccc(C(=O)O)cc3)o2)S1", "note": "[Compound 1, 4-{5-[(2,4-Dioxo-1,3-thiazolidin-5-ylidene)methyl]-2-furyl}benzoic acid]", "values": [{"measurement": "IC50", "setting": "[1]; Tris 100 mM pH 7.4, 37° C., 50 μM prostaglandin E2, 1.5 mM β-NAD, read-out: Inhibition of 15-PGDH IC50dh", "result": 300, "unit": "nM"}, {"measurement": "ratio IC50fs/IC50dh", "setting": "[1]; selectivity for 15-PGDH with respect to PGFS", "result": "greater than 13"}, {"measurement": "amount of PGF2 secreted by the cells, % of the LPS control", "setting": "[2]", "result": "+76 ± 20%"}, {"measurement": "IC50", "setting": "[3]", "result": 4000, "unit": "nM"}]}
{"smiles": "O=C1N=C(O)/C(=C/c2ccc(-c3ccc(C(=O)O)cc3)o2)S1", "note": "[Compound 8, Disodium salt of 4-{5-[(2,4-disulpho-1,3-thiazolidin-5-ylidene)methyl]-2-furyl}benzoic acid (isomer Z)]", "values": [{"measurement": "amount of PGF2 secreted by the cells, % of the LPS control", "setting": "[2]", "result": "+44 ± 16%"}]}
